Structures can show the parent of a compound that is named as a salt. Numbered stars: 1 amine (or outer) side, 2 acyl side, 3 side chain; on linkers, the order of the positions; unused ones are H or OH. Bridge positions count the residues as written; N and C are the ends. Square brackets hold non-standard residues; d marks the D form. Peptide text beside a SMILES is read from it. I, II: the chains in the order shown. Actinocin(9to1) = Cc1c2oc3c(C)ccc(C(=O)[*:1])c3nc-2c(C(=O)[*:2])c(N)c1=O; NMeV = CN[C@H](C(=O)O)C(C)C; Sar = CNCC(=O)O
system: human fibroblasts; experiment: Cell proliferation of fibroblasts; format: cell-based; settings: Fibroblast, 72 hours, CYQUANT, read-out: IC50 cell proliferation of fibroblasts
Experimental: Fibroblasts at 70-90% confluency are trypsinized, replated at 600 cells/well in media in 96-well plates and allowed to attachment overnight. […] Each drug concentration is tested in triplicate wells. Plates containing fibroblasts and drug substance are incubated at 37° C. for 72 hours.
To terminate the assay, the media is removed by gentle aspiration. A 1/400 dilution of CYQUANT 400×GR™ dye indicator (Molecular Probes; Eugene, Oreg.) is added to 1× Cell Lysis buffer, and 200 μL of the mixture is added to the wells of the plate. Plates are incubated at room temperature, protected from light for 3-5 minutes.

Row | SMILES | IC50 [µM]
1 | Nc1ncn([C@@H]2O[C@H](CO)[C@@H](O)[C@H]2O)c(=O)n1 [5-Azacytidine] | 0.6 to 1.2
2 | O=c1cnn([C@@H]2O[C@H](CO)C(O)[C@@H]2O)c(=O)[nH]1 (some centres unmarked) [6-Azauridine, 6-Azauracil riboside] | 1.2 to 10
3 | CC[C@@]1(O)C[C@H](O[C@H]2C[C@H](N(C)C)[C@H](O[C@H]3C[C@H](O)[C@H](O[C@H]4CCC(=O)[C@H](C)O4)[C@H](C)O3)[C@H](C)O2)c2c(cc3c(c2O)C(=O)c2c(O)cccc2C3=O)[C@H]1C(=O)OC [Aclarubicin] | 0.0001 to 0.01
4 | Cc1c2oc3c(C)ccc(C(=O)N[C@@H]4C(=O)N[C@H](C(C)C)C(=O)N5CCC[C@H]5C(=O)N(C)CC(=O)N(C)[C@@H](C(C)C)C(=O)O[C@@H]4C)c3nc-2c(C(=O)N[C@@H]2C(=O)N[C@H](C(C)C)C(=O)N3CCC[C@H]3C(=O)N(C)CC(=O)N(C)[C@@H](C(C)C)C(=O)O[C@@H]2C)c(N)c1=O [Actinomycin D] (I: T[dV]P[Sar][NMeV] / II: T[dV]P[Sar][NMeV]; ester I:1-I:C, II:1-II:C; linker I:N-II:N via Actinocin(9to1)) | 0.0001 to 0.01
5 | CCCSc1ccc2nc(NC(=O)OC)[nH]c2c1 [Albendazole] | 0.1 to 0.6
6 | S=C(S)N1CCCC1 [Ammonium pyrrolidinedithiocarbamate, 1-Pyrrolidinecarbodithioic acid ammonium salt] | 0.1 to 0.6
7 | N=c1ccn2c(n1)O[C@H]1[C@H](O)[C@@H](CO)O[C@H]12 [Ancitabine hydrochloride] | 0.1 to 0.6
8 | O=c1cc(-c2ccc(O)cc2)oc2cc(O)cc(O)c12 [Apigenin, 4,5,7-Trihydroxyflavone] | 1.2 to 10
9 | O=C1C(O)=C([C@H]2CC[C@H](c3ccc(Cl)cc3)CC2)C(=O)c2ccccc21 [Atovaquone] | 1.2 to 10
10 | Cc1ccc2nc(NCCN)c3ncc(C)n3c2c1 [BMS-345541] | 1.2 to 10
11 | O=C(OOC(=O)c1ccccc1)c1ccccc1 [Benzoyl peroxide] | 1.2 to 10
12 | C=C(C)[C@@H]1CC[C@]2(C(=O)O)CC[C@]3(C)[C@H](CC[C@@H]4[C@@]5(C)CC[C@H](O)C(C)(C)[C@@H]5CC[C@]43C)[C@@H]12 [Betulinic acid] | 1.2 to 10
13 | Clc1ccc(CCC(Cn2ccnc2)Sc2c(Cl)cccc2Cl)cc1 (centres unmarked) [Butoconazole Nitrate] | 1.2 to 10
14 | O=C1NC(=O)c2cc(Nc3ccc(F)cc3)c(Nc3ccc(F)cc3)cc21 [CGP53353] | 1.2 to 10
15 | CCOc1nc2cccc(C(=O)O)c2n1Cc1ccc(-c2ccccc2-c2nnn[nH]2)cc1 [Candesartan] | 0.01 to 0.1
16 | O=NN(CCCl)C(=O)NCCCl [Carmustine] | 1.2 to 10
17 | Cc1ccc(-c2cc(C(F)(F)F)nn2-c2ccc(S(N)(=O)=O)cc2)cc1 [Celecoxib] | 0.1 to 0.6
18 | C/C=C(\C)C(=O)N[C@@H](c1ccccc1)[C@@H](O)C(=O)O[C@H]1C[C@@]2(O)[C@@H](OC(=O)c3ccccc3)[C@@H]3[C@]4(OC(C)=O)CO[C@@H]4C[C@H](O)[C@@]3(C)C(=O)[C@H](OC(C)=O)C(=C1C)C2(C)C [Cephalomannine] | 0.01 to 0.1
19 | COc1ccc2cc1Oc1ccc(cc1)C[C@H]1c3c(cc4c(c3Oc3cc5c(cc3OC)CCN(C)[C@@H]5C2)OCO4)CCN1C [Cepharanthine] | 0.6 to 1.2
20 | COCc1c(C(C)C)nc(C(C)C)c(/C=C/[C@@H](O)C[C@@H](O)CC(=O)O)c1-c1ccc(F)cc1 [Cerivastatin Na] | 1.2 to 10
21 | CC1(COc2ccc(CC3SC(=O)NC3=O)cc2)CCCCC1 (centres unmarked) [Ciglitazone] | 0.6 to 1.2
22 | CC[C@H]1OC(=O)[C@H](C)[C@@H](O[C@H]2C[C@@](C)(OC)[C@@H](O)[C@H](C)O2)[C@H](C)[C@@H](O[C@@H]2O[C@H](C)C[C@H](N(C)C)[C@H]2O)[C@](C)(OC)C[C@@H](C)C(=O)[C@H](C)[C@@H](O)[C@]1(C)O [Clarithromycin, 6-O-Methylerythromycin] | 0.1 to 0.6
23 | O=C1CCc2cc(OCCCCc3nnnn3C3CCCCC3)ccc2N1 [Cliostazol] | 1.2 to 10

Row | SMILES | IC50 [µM]
24 | CCOC(=O)COc1ccc2c(C)c(CCN(CC)CC)c(=O)oc2c1Cl [Cloricromene] | 1.2 to 10
25 | COc1cc(/C=C/C(=O)CC(=O)/C=C/c2ccc(O)c(OC)c2)ccc1O [Curcumin, Diferuloylmethane] | 1.2 to 10
26 | CN(C)/N=N/c1[nH]cnc1C(N)=O [Dacarbazine] | 0.01 to 0.1
27 | Nc1ncn([C@H]2C[C@H](O)[C@@H](CO)O2)c(=O)n1 [Decitabine, 5-Aza-2-deoxycytidine] | 0.1 to 0.6
28 | O=c1oc2ccccc2c(O)c1Cc1c(O)c2ccccc2oc1=O [Dicumarol, 3,3-Methylenebis(4-hydroxycoumarin)] | 1.2 to 10
29 | CC(=O)OCC(=O)[C@@]1(OC(C)=O)[C@@H](C)C[C@H]2[C@@H]3C[C@H](F)C4=CC(=O)C=C[C@]4(C)[C@@]3(F)[C@@H](O)C[C@@]21C [Diflorasone diacetate] | 1.2 to 10
30 | Cc1cc(O)c2c(c1)C(=O)c1cc(O)cc(O)c1C2=O [Emodin, 6-Methyl-1,3,8-trihydroxyanthraquinone] | 1.2 to 10
31 | CCOC(=O)[C@H](CCc1ccccc1)N[C@@H](C)C(=O)N1CCC[C@H]1C(=O)O [Enalapril] | 1.2 to 10
32 | COC(=O)C=Cc1cc(O)ccc1O [Erbstatin analog, Methyl 2,5-dihydroxycinnamate] | 1.2 to 10
33 | O=C(O)CSCC(=O)NC1CCSC1=O (centres unmarked) [Erdosteine] | 1.2 to 10
34 | NC(N)=Nc1nc(CSCCC(N)=NS(N)(=O)=O)cs1 [Famotidine] | 0.1 to 0.6
35 | O=S(=O)(c1cccc2cnccc12)N1CCCNCC1 [Fasudil] | 0.6 to 1.2
36 | Nc1nc(F)nc2c1ncn2[C@@H]1O[C@H](COP(=O)(O)O)[C@@H](O)[C@@H]1O [Fludarabine Phosphate] | 1.2 to 10
37 | CC(C)n1c(/C=C/C(O)CC(O)CC(=O)O)c(-c2ccc(F)cc2)c2ccccc21 (centres unmarked) [Fluvastatin] | 0.1 to 0.6
38 | COc1ccc(-c2coc3cc(O)ccc3c2=O)cc1 [Formononetin, 7-Hydroxy-4-methoxyisoflavone] | 0.1 to 0.6
39 | Cc1ccc(C)c(OCCCC(C)(C)C(=O)O)c1 [Gemfibrozil] | 0.01 to 0.1
40 | CCCCCCC(C)(C)c1cc(O)c2c(c1)OC(C)(C)[C@@H]1CC=C(CO)C[C@@H]21 [HU-210] | 1.2 to 10
41 | CCC(=O)O[C@]1(C(=O)CCl)[C@@H](C)C[C@H]2[C@@H]3C[C@H](F)C4=CC(=O)C=C[C@]4(C)[C@@]3(F)[C@@H](O)C[C@@]21C [Halobetasol Propionate] | 1.2 to 10
42 | COc1ccc([C@@H]2CC(=O)c3c(O)cc(O)cc3O2)cc1O [Hesperetin] | 0.0001 to 0.01
43 | COC(=O)C[C@](O)(CCCC(C)(C)O)C(=O)O[C@@H]1C(OC)=C[C@]23CCCN2CCc2cc4c(cc2[C@H]13)OCO4 [Homoharringtonine] | 0.01 to 0.1
44 | NNc1nncc2ccccc12 [Hydralazine hydrochloride] | 1.2 to 10
45 | O=C(Nc1cc(C(F)(F)F)cc(C(F)(F)F)c1)c1cc(Cl)ccc1O [IMD-0354] | 0.1 to 0.6
46 | O=c1[nH]cnc2c1ncn2[C@@H]1O[C@H](CO)[C@@H](O)[C@H]1O [INO-1001] | 1.2 to 10

Row | SMILES | IC50 [µM]
47 | COC1=C(OC)C(=O)C(CCCCCCCCCCO)=C(C)C1=O [Idebenone] | 1.2 to 10
48 | c1c[nH]cn1 [Imidazole] | 1.2 to 10
49 | CCc1c2c(nc3ccc(OC(=O)N4CCC(N5CCCCC5)CC4)cc13)-c1cc3c(c(=O)n1C2)COC(=O)[C@]3(O)CC [Irinotecan Hydrochloride Trihydrate] | 0.6 to 1.2
50 | Nc1nc(N)nc(-c2cc(Cl)ccc2Cl)n1 [Irsogladine] | 1.2 to 10
51 | CO[C@@H]1[C@@H](O[C@@H]2O[C@H](C)[C@@H](O[C@H]3C[C@@](C)(O)[C@@H](OC(=O)CC(C)C)[C@H](C)O3)[C@H](N(C)C)[C@H]2O)[C@@H](CC=O)C[C@@H](C)[C@@H](O)/C=C/C=C/C[C@@H](C)OC(=O)C[C@H]1OC(C)=O [Josamycin] | 0.0001 to 0.01
52 | O=c1c(O)c(-c2ccc(O)cc2)oc2cc(O)cc(O)c12 [Kaempferol] | 0.6 to 1.2
53 | CN(C)C[C@@H]1CCn2cc(c3ccccc32)C2=C(C(=O)NC2=O)c2cn(c3ccccc23)CCO1 [LY333531, Ruboxistaurin] | 1.2 to 10
54 | CCCCc1nc(Cl)c(CO)n1Cc1ccc(-c2ccccc2-c2nn[nH]n2)cc1 [Losartan potassium] | 1.2 to 10
55 | NC(Cc1ccc(N(CCCl)CCCl)cc1)C(=O)O (centres unmarked) [Melphalan] | 1.2 to 10
56 | CCC(=O)O[C@@H]1CC(=O)O[C@H](C)C/C=C/C=C/[C@H](O)[C@H](C)C[C@H](CC=O)[C@H](O[C@@H]2O[C@H](C)[C@@H](O[C@H]3C[C@@](C)(O)[C@@H](OC(=O)CC)[C@H](C)O3)[C@H](N(C)C)[C@H]2O)[C@H]1OC [Midecamycin, Leucomycin V 3,4B-dipropionate] | 1.2 to 10
57 | O[C@@H]([C@H](O)[C@H](O)CBr)[C@H](O)CBr [Mitobronitol] | 0.1 to 0.6
58 | NC(=O)c1ncn([C@@H]2O[C@H](CO)[C@@H](O)[C@H]2O)c1O [Mizoribine] | 0.01 to 0.1
59 | O=c1c(O)c(-c2cc(O)c(O)c(O)c2)oc2cc(O)cc(O)c12 [Myricetin] | 0.6 to 1.2
60 | CS(=O)(=O)Nc1ccc([N+](=O)[O-])cc1OC1CCCCC1 [NS-398] | 1.2 to 10
61 | CNCCC=C1c2ccccc2CCc2ccccc21 [Nortriptyline Hydrochloride] | 0.0001 to 0.01
62 | CN(C)[C@@H]1C(O)=C(C(N)=O)C(=O)[C@@]2(O)C(O)=C3C(=O)c4c(O)cccc4[C@@](C)(O)[C@H]3[C@H](O)[C@@H]12 [Oxytetracycline hydrochloride] | 0.1 to 0.6
63 | NCCC(O)(P(=O)(O)O)P(=O)(O)O [Pamidronate disodium] | 0.1 to 0.6
64 | OC1(c2ccc(Cl)c(C(F)(F)F)c2)CCN(CCCC(c2ccc(F)cc2)c2ccc(F)cc2)CC1 [Penfluridol] | 0.6 to 1.2
65 | N=C(N)c1ccc(OCCCCCOc2ccc(C(=N)N)cc2)cc1 [Pentamidine] | 0.6 to 1.2
66 | C1CCNCC1 [Piperidine] | 1.2 to 10
67 | O=C(CCBr)N1CCN(C(=O)CCBr)CC1 [Pipobroman, N,N-Bis(3-bromopropionyl)piperazine] | 1.2 to 10
68 | Cc1ccc(=O)n(-c2ccccc2)c1 [Pirfenidone] | 0.01 to 0.1
